Laboratory results reported in patent US9914711B2 (priority 2013, dated 2018).

Legend:
C. violaceum CV026 = experiment: Preliminary screening of bacterial quorum sensing agonistic / inhibitory activity on LB plate (purple stain / white circle); type: cell-based; details: for Regulatory activity (bacterial quorum sensing regulatory activity): 1 μl of 0.065M compound spotted on plate, inhibitory screen with inducer C6-HSL, 30° C., 16-18 h; for Effect on bacterial quorum sensing (summary in words): summary of the activity evaluation experiments
Experimental: 1.1 Preparation work: different compounds to be tested (Compounds 1-40 prepared in Example 1-40) were weighted and then were dissolved in 200 μl DMSO (dimethyl sulfoxide) to prepare a solution at a concentration of 0.065M. 5.0 mg inducer, N-hexanoyl homoserine lactone (C6-HSL, purchased from Sigma Company), was weighted and was dissolved in 200 μl DMSO (at a concentration of 0.125M), and the compounds and the inducer were stored at 4 for further use. C. violaceum CV026 (donated by Professor McLean J C from Texas State University) in LB culture medium (LB culture medium consisting of 1% (percentage by mass) tryptone, 0.5% (percentage by mass) yeast extract, 1% (percentage by mass) NaCl and water) was cultured under shaking in a shaker at 30, 200 rpm to get the culture medium for further use.
1.2 Method for preliminary screening of compounds having agonistic activity: 400 μl C. violaceum CV026 (at a bacterial concentration of 1×10^8/ml) was added to 5 ml melted semi-solid LB culture medium, and was mixed well; the mixed culture medium was poured into a solid LB plate; when the mixed culture medium was solidified on the plate, lattice was made thereon; 1 μl of the dissolved compounds to be tested (Compounds 1-40 in Examples 1-40, at a concentration of 0.065M) was spotted on the plate; when the compounds on the plate was dried in air, the plate was put in a 30° C. oven upside down and was cultured for a period of 16-18 h. If the compound to be tested has an agonistic effect on C. violaceum CV026 on the LB plate, purple stain will be induced on the LB plate. The agonistic activity of a compound is determined depending on whether purple stain is induced for C. violaceum CV026 on LB plate as well as the purple depth.
1.3 Method for preliminary screening of compounds having inhibitory activity: the inducer C6-HSL was diluted gradiently to 1000 times by means of 2-fold dilution; 15 μl diluted inducer and 400 μl C. violaceum CV026 in exponential phase (at a bacterial concentration of 1×10^8/ml) were mixed well and then were added to a 5 ml melted semi-solid LB culture medium; the mixture of inducer, C. violaceum, and semi-solid LB was poured onto a solid LB plate; when the mixture was solidified on the plate, lattice was made thereon: 1 μl of the dissolved compounds to be tested (Compounds 1-40 in Examples 1-40, at a concentration of 0.065M) was spotted on the plate; when the compounds on the plate were dried in air, the plate was put in a 30° C. oven upside down and was cultured for a period of 16-18 h. If the compound to be tested has an inhibitory effect on C. violaceum CV026 on the LB plate, white circle will appear on the LB plate. The inhibitory activity of a compound is preliminary determined depending on the size of the white circle appeared after C. violaceum CV026 was inhibited on LB plate.
It is found after preliminary screening that 22 compounds according to the invention have bacterial quorum sensing regulatory activity, and the screening result was shown in Table 1.

Compound	melting point [°C]	Regulatory activity (bacterial quorum sensing regulatory activity) (C. violaceum CV026)	Effect on bacterial quorum sensing (summary in words) (C. violaceum CV026)
O=C(NC1CCCCC1)NN1CCOC1=O [Compound 22, 1-cyclohexyl-3-(2-oxo-oxazolidin-3-yl)urea]	203 to 205		
CCCCNC(=O)NN1CCOC1=O [Compound 15, 1-(2-oxo-oxazolidin-3-yl)-3-butyl urea]	98 to 100		
O=C(NN1CCOC1=O)c1ccccc1Cl [Compound 4, 2-chloro-N-(2-oxo-oxazolidin-3-yl)benzamide]	166 to 168	±	both an agonizing effect and an inhibitory effect
O=C(NN1CCOC1=O)c1ccc(F)cc1 [Compound 1, 4-fluoro-N-(2-oxo-oxazolidin-3-yl)benzamide]	189 to 192		
O=C(NN1CCOC1=O)c1ccc(CCl)cc1 [Compound 3, 4-chloromethyl-N-(2-oxo-oxazolidin-3-yl)benzamide]	206 to 208	−	inhibitory effect on bacterial quorum sensing
O=C(Cc1ccc(Cl)cc1)NN1CCOC1=O [Compound 34, 2-(4-chlorophenyl)-N-(2-oxo-oxazolidin-3-yl)acetamide]	124 to 127	+	
O=C(NN1CCOC1=O)c1ccccc1C(F)(F)F [Compound 10, 2-trifluoromethyl-N-(2-oxo-oxazolidin-3-yl)benzamide]	139 to 141	+	
O=C(NN1CCOC1=O)c1ccc(F)cc1 [Compound 9, 4-fluoro-N-(2-oxo-oxazolidin-3-yl)benzamide]		+	
CCCCCCCCNC(=O)NN1CCOC1=O [Compound 19, 1-(2-oxo-oxazolidin-3-yl)-3-octyl urea]	64 to 65	−	inhibitory effect on bacterial quorum sensing
O=C(Nc1cccc(Br)c1)NN1CCOC1=O	197 to 199		
O=C(NN1CCOC1=O)c1cccc(F)c1	166 to 169		
O=C(Cc1ccc(F)cc1)NN1CCOC1=O [Compound 31, 2-(4-fluorophenyl)-N-(2-oxo-oxazolidin-3-yl)acetamide]	131 to 134	+	
O=C(NN1CCOC1=O)c1cccc(Cl)c1 [Compound 5, 3-chloro-N-(2-oxo-oxazolidin-3-yl)benzamide]	151 to 152	+	
O=C(Cc1ccc([N+](=O)[O-])cc1)NN1CCOC1=O [Compound 33, 2-(4-nitrophenyl)-N-(2-oxo-oxazolidin-3-yl)acetamide]	180 to 183	+	
O=C1OCCN1NC(=S)Nc1ccccc1 [Compound 27, 1-(2-oxo-oxazolidin-3-yl)phenylthiourea]	191 to 193		
O=C(NN1CCOC1=O)c1ccccc1F [Compound 6, 2-fluoro-N-(2-oxo-oxazolidin-3-yl)benzamide]	124 to 127		
COc1ccc(CC(=O)NN2CCOC2=O)cc1 [Compound 32, 2-(4-methoxyphenyl)-N-(2-oxo-oxazolidin-3-yl)acetamide]	90 to 92	+	
Cc1ccc(NC(=O)NN2CCOC2=O)cc1	205 to 207		

Compound	melting point [°C]	Regulatory activity (bacterial quorum sensing regulatory activity) (C. violaceum CV026)	Effect on bacterial quorum sensing (summary in words) (C. violaceum CV026)
CCCCCCNC(=O)NN1CCOC1=O [Compound 17, 1-(2-oxo-oxazolidin-3-yl)-3-hexyl urea]	74 to 75		
O=C(NCCc1ccccc1)NN1CCOC1=O [Compound 24, 1-(2-oxo-oxazolidin-3-yl)phenyl ethyl urea]	123 to 125		
O=C1OCCN1NC(=S)Nc1ccc(F)cc1 [Compound 28, 1-(4-fluorophenyl)-3-(2-oxo-oxazolidin-3-yl)sulfourea]	190 to 191		
CCCCCNC(=O)NN1CCOC1=O [Compound 16, 1-(2-oxo-oxazolidin-3-yl)-3-pentyl urea]	83 to 86		
Cc1ccc(CCC(=O)NN2CCOC2=O)cc1 [Compound 38]	146 to 148	+	
CC(C)(C)c1ccc(C(=O)NN2CCOC2=O)cc1 [Compound 2, 4-tert-butyl-N-(2-oxo-oxazolidin-3-yl)benzamide]	187 to 189	−	inhibitory effect on bacterial quorum sensing
O=C(CCc1ccc(Cl)cc1)NN1CCOC1=O [Compound 39]	134 to 136	+	
O=C(CCc1ccccc1)NN1CCOC1=O [Compound 37]		+	
Cc1ccc(CC(=O)NN2CCOC2=O)cc1 [Compound 35, 2-(4-tolyl)-N-(2-oxo-oxazolidin-3-yl)acetamide]	108 to 111	+	
Cc1cccc(NC(=O)NN2CCOC2=O)c1	191 to 192		
Cc1cccc(C(=O)NN2CCOC2=O)c1 [Compound 8, 3-methyl-N-(2-oxo-oxazolidin-3-yl)benzamide]	148 to 150	+	
O=C(Nc1ccc(OC(F)(F)F)cc1)NN1CCOC1=O	205 to 206		
O=C(CCc1ccc([N+](=O)[O-])cc1)NN1CCOC1=O [Compound 36]	143 to 145	+	
CCCCCCCNC(=O)NN1CCOC1=O [Compound 18, 1-(2-oxo-oxazolidin-3-yl)-3-heptyl urea]	68 to 69	−	inhibitory effect on bacterial quorum sensing
O=C(Nc1ccc(Br)cc1)NN1CCOC1=O [Compound 20, 1-(4-bromophenyl)-3-(2-oxo-oxazolidin-3-yl)urea]	212 to 215		
O=C(NCc1ccccc1)NN1CCOC1=O [Compound 23, 1-benzyl-3-(2-oxo-oxazolidin-3-yl)urea]	160 to 161		
O=C(CCCc1ccccc1)NN1CCOC1=O [Compound 40, N-(2-oxo-oxazolidin-3-yl)-4-phenyl butanamide]	104 to 107	+	
